{"source": "patent US6313111A", "about": "“Substituted 6H-1,3,4-thiadiazine-2-amines, the use thereof as anaesthetising, cardiovascular and hypometabolic agents, and pharmaceutical composition containing them” (priority 1998, dated 2001)", "assay": "rectal (body) temperature of mice measured with medicinal electrothermometer TREM-1", "assay_type": "in vivo, mice of the BALB line", "conditions": "for body temperature: i.p.", "description": "In all cases tests were carried out on mice of the BALB line of 3-4 month age. […] In the case of water-soluble compounds, aqueous solutions of the test compounds were injected intraperitoneally (i.p.), while water-insoluble compounds were introduced orally (p.o.).\nRectal temperature changes (absolute magnitues in ° C.) were measured using a medicinal electrothermometer TREM-1 (Table 1). The rate of oxygen consumption was monitored by measuring concentration of oxygen in a closed testing unit with optic-acoustic gas analyser MN 5130. The data on oxygen consumption are given in percents relative to the starting content of oxygen taken as 100%. (Table 2).\nRectal temperature of mice was followed in dynamics after 5, 15, 30, 60, 120, 180, 240, 300, and 360 minutes (Table 3). […] The same decrease in temperature at 190 mg/kg dosage was reached after 15 minutes; in 1.5 hours it reached 22-25° C. and maintained this level over the next 5 hours, that is 13-17° C. below the initial value. After one day, body temperature was restored to the value of 94-96% of initial.", "note": "“And” between values parts separate entries of the source, which are not always exact repeats. Equal entries are not always repeated. Structures can show the parent of a compound that is named as a salt.", "data": [{"smiles": "c1ccc(C2=NN=C(N3CCOCC3)SC2)cc1", "note": "[Compound 1, 2-Morpholino-5-phenyl-6H-1,3,4-thiadiazine, hydrobromide]", "values": [{"measurement": "body temperature (T)", "setting": "190 mg/kg (1/2 LD16) i.p., 15 min", "value": "30.8 ± 0.2", "unit": "°C"}, {"measurement": "time to reach the same decrease in temperature (7-8° C.)", "setting": "190 mg/kg i.p.", "value": 15, "unit": "min"}, {"measurement": "body temperature (T)", "setting": "190.0 mg/kg i.p., 0 min", "value": "39.2 ± 0.1", "unit": "°C"}, {"measurement": "body temperature (T)", "setting": "190.0 mg/kg i.p., 10 min", "value": "34.9 ± 0.0", "unit": "°C"}, {"measurement": "body temperature (T)", "setting": "190.0 mg/kg i.p., 20 min", "value": "30.8 ± 0.2", "unit": "°C"}, {"measurement": "body temperature (T)", "setting": "190.0 mg/kg i.p., 30 min, hydrobromide", "value": "26.9 ± 0.4 °C and 26.9 °C"}, {"measurement": "body temperature (T)", "setting": "190.0 mg/kg i.p., 40 min", "value": "25.9 ± 0.3", "unit": "°C"}, {"measurement": "body temperature (T)", "setting": "190.0 mg/kg i.p., 60 min", "value": "23.5 ± 0.2", "unit": "°C"}, {"measurement": "body temperature (T)", "setting": "190.0 mg/kg i.p., 90 min", "value": "21.4 ± 0.2", "unit": "°C"}, {"measurement": "body temperature (T)", "setting": "190.0 mg/kg i.p., 120 min", "value": "23.0 ± 0.8", "unit": "°C"}, {"measurement": "body temperature (T)", "setting": "190.0 mg/kg i.p., 180 min", "value": "20.9 ± 0.1", "unit": "°C"}, {"measurement": "body temperature (T)", "setting": "190.0 mg/kg i.p., 210 min", "value": 21.4, "unit": "°C"}, {"measurement": "body temperature (T)", "setting": "190.0 mg/kg i.p., 240 min", "value": "21.1 ± 0.1", "unit": "°C"}, {"measurement": "body temperature (T)", "setting": "190.0 mg/kg i.p., 270 min", "value": "20.8 ± 0.3", "unit": "°C"}, {"measurement": "body temperature (T)", "setting": "190.0 mg/kg i.p., 300 min, hydrobromide", "value": "20.2 ± 0.0 °C and 20.2 ± 0.2 °C"}, {"measurement": "body temperature (T)", "setting": "190.0 mg/kg i.p., 330 min", "value": "19.8 ± 0.2", "unit": "°C"}, {"measurement": "body temperature (T)", "setting": "190.0 mg/kg i.p., 390 min", "value": "19.8 ± 0.2", "unit": "°C"}, {"measurement": "body temperature (T)", "setting": "190.0 mg/kg i.p., 1140 min", "value": 36.9, "unit": "°C"}, {"measurement": "body temperature (T)", "setting": "190.0 mg/kg i.p., 1620 min", "value": "37.9 ± 0.4", "unit": "°C"}, {"measurement": "body temperature (T)", "setting": "190.0 mg/kg i.p., 1980 min", "value": "36.9 ± 0.3", "unit": "°C"}, {"measurement": "time over which the temperature level was maintained", "setting": "190 mg/kg i.p., after reaching 22-25° C. in 1.5 hours", "value": 5, "unit": "h"}, {"measurement": "body temperature below the initial value", "setting": "190 mg/kg i.p., from 1.5 hours over the next 5 hours", "value": "13-17 °C"}, {"measurement": "body temperature level reached", "setting": "190 mg/kg i.p., in 1.5 hours", "value": "22-25 °C"}, {"measurement": "body temperature (T)", "setting": "279.0 mg/kg i.p., 0 min", "value": "38.9 ± 0.6", "unit": "°C"}, {"measurement": "body temperature (T)", "setting": "279.0 mg/kg i.p., 10 min", "value": "35.8 ± 0.1", "unit": "°C"}, {"measurement": "body temperature (T)", "setting": "279.0 mg/kg i.p., 20 min", "value": "30.2 ± 0.1", "unit": "°C"}, {"measurement": "body temperature (T)", "setting": "279.0 mg/kg i.p., 30 min", "value": 27.1, "unit": "°C"}, {"measurement": "body temperature (T)", "setting": "279.0 mg/kg i.p., 40 min", "value": "24.7 ± 0.2", "unit": "°C"}, {"measurement": "body temperature (T)", "setting": "279.0 mg/kg i.p., 60 min", "value": "21.0 ± 0.1", "unit": "°C"}, {"measurement": "body temperature (T)", "setting": "279.0 mg/kg i.p., 90 min", "value": "20.0 ± 0.1", "unit": "°C"}, {"measurement": "body temperature (T)", "setting": "279.0 mg/kg i.p., 120 min", "value": "21.0 ± 0.3", "unit": "°C"}, {"measurement": "body temperature (T)", "setting": "279.0 mg/kg i.p., 180 min", "value": "21.2 ± 0.2", "unit": "°C"}, {"measurement": "body temperature (T)", "setting": "279.0 mg/kg i.p., 210 min", "value": 21.2, "unit": "°C"}, {"measurement": "body temperature (T)", "setting": "279.0 mg/kg i.p., 240 min", "value": "20.8 ± 0.1", "unit": "°C"}, {"measurement": "body temperature (T)", "setting": "279.0 mg/kg i.p., 270 min", "value": "21.5 ± 0.1", "unit": "°C"}, {"measurement": "body temperature (T)", "setting": "279.0 mg/kg i.p., 300 min", "value": "21.3 ± 0.3", "unit": "°C"}, {"measurement": "body temperature (T)", "setting": "279.0 mg/kg i.p., 330 min", "value": "22.5 ± 0.3", "unit": "°C"}, {"measurement": "body temperature (T)", "setting": "279.0 mg/kg i.p., 390 min", "value": "19.4 ± 0.3", "unit": "°C"}, {"measurement": "body temperature (T)", "setting": "279.0 mg/kg i.p., 1140 min", "value": 20.8, "unit": "°C"}, {"measurement": "body temperature (T)", "setting": "279.0 mg/kg i.p., 1620 min", "value": "22.6 ± 0.9", "unit": "°C"}, {"measurement": "body temperature (T)", "setting": "279.0 mg/kg i.p., 1980 min", "value": "21.2 ± 0.3", "unit": "°C"}, {"measurement": "body temperature (T)", "setting": "365.0 mg/kg i.p., 0 min", "value": "39.6 ± 0.1", "unit": "°C"}, {"measurement": "body temperature (T)", "setting": "365.0 mg/kg i.p., 10 min", "value": "35.4 ± 0.2", "unit": "°C"}, {"measurement": "body temperature (T)", "setting": "365.0 mg/kg i.p., 20 min", "value": "30.1 ± 0.2", "unit": "°C"}, {"measurement": "body temperature (T)", "setting": "365.0 mg/kg i.p., 30 min", "value": 27.2, "unit": "°C"}, {"measurement": "body temperature (T)", "setting": "365.0 mg/kg i.p., 40 min", "value": "25.5 ± 0.2", "unit": "°C"}, {"measurement": "body temperature (T)", "setting": "365.0 mg/kg i.p., 60 min", "value": "23.3 ± 0.3", "unit": "°C"}, {"measurement": "body temperature (T)", "setting": "365.0 mg/kg i.p., 90 min", "value": "21.5 ± 0.2", "unit": "°C"}, {"measurement": "body temperature (T)", "setting": "365.0 mg/kg i.p., 120 min", "value": "20.9 ± 0.2", "unit": "°C"}, {"measurement": "body temperature (T)", "setting": "365.0 mg/kg i.p., 180 min", "value": "21.4 ± 0.1", "unit": "°C"}, {"measurement": "body temperature (T)", "setting": "365.0 mg/kg i.p., 210 min", "value": 21.2, "unit": "°C"}, {"measurement": "body temperature (T)", "setting": "365.0 mg/kg i.p., 240 min", "value": "21.1 ± 0.0", "unit": "°C"}, {"measurement": "body temperature (T)", "setting": "365.0 mg/kg i.p., 270 min", "value": "21.4 ± 0.7", "unit": "°C"}, {"measurement": "body temperature restored, % of initial", "setting": "after one day, 190 mg/kg i.p.", "value": "94-96%"}, {"measurement": "body temperature (T)", "setting": "dose 36.5 mg/kg (1.06 mM/kg) i.p., 300 min", "value": "22.1 ± 0.0", "unit": "°C"}, {"measurement": "body temperature (T)", "setting": "dose 36.5 mg/kg (1.06 mM/kg) i.p., 330 min", "value": "21.5 ± 0.1", "unit": "°C"}, {"measurement": "body temperature (T)", "setting": "dose 36.5 mg/kg (1.06 mM/kg) i.p., 390 min", "value": "20.0 ± 0.2", "unit": "°C"}, {"measurement": "body temperature (T)", "setting": "dose 36.5 mg/kg (1.06 mM/kg) i.p., 1140 min", "value": 20.8, "unit": "°C"}, {"measurement": "body temperature (T)", "setting": "dose 36.5 mg/kg (1.06 mM/kg) i.p., 1620 min", "value": "21.6 ± 0.1", "unit": "°C"}, {"measurement": "body temperature (T)", "setting": "dose 36.5 mg/kg (1.06 mM/kg) i.p., 1980 min", "value": "22.1 ± 0.2", "unit": "°C"}, {"measurement": "body temperature", "setting": "0 min, mg/kg: cpd 1 190.0, cpd 2 178.0, cpd 5 190.0, cpd 6 160.0", "value": 39.2, "unit": "°C"}, {"measurement": "body temperature", "setting": "30 min, mg/kg: cpd 1 190.0, cpd 2 178.0, cpd 5 190.0, cpd 6 160.0", "value": 26.9, "unit": "°C"}, {"measurement": "body temperature", "setting": "60 min, mg/kg: cpd 1 190.0, cpd 2 178.0, cpd 5 190.0, cpd 6 160.0", "value": 23.5, "unit": "°C"}, {"measurement": "body temperature", "setting": "90 min, mg/kg: cpd 1 190.0, cpd 2 178.0, cpd 6 160.0", "value": 21.4, "unit": "°C"}, {"measurement": "body temperature", "setting": "120 min, mg/kg: cpd 1 190.0, cpd 2 178.0, cpd 5 190.0, cpd 6 160.0", "value": 23.0, "unit": "°C"}, {"measurement": "body temperature", "setting": "180 min, mg/kg: cpd 1 190.0, cpd 2 178.0, cpd 5 190.0, cpd 6 160.0", "value": 20.9, "unit": "°C"}, {"measurement": "body temperature", "setting": "240 min, mg/kg: cpd 1 190.0, cpd 2 178.0, cpd 5 190.0, cpd 6 160.0", "value": 21.1, "unit": "°C"}, {"measurement": "body temperature", "setting": "300 min, mg/kg: cpd 1 190.0, cpd 2 178.0, cpd 6 160.0", "value": 20.2, "unit": "°C"}]}]}
